In ChEMBL document CHEMBL1123824 (J Med Chem, 1987):
Where a SMILES comes first, the peptide text is derived from it. The star is where a group is joined. X1 = CCCN1C(=O)C2NC(c3ccc(OCC(=O)NCCNC(=O)C(N)CC(=O)*)cc3)=NC2N(CCC)C1=O; X2 = O=C(Cc1ccc(Nc2ncnc3c2ncn3[C@@H]2O[C@H](CO)[C@@H](O)[C@H]2O)cc1)*

Columns and labels:
[1] = biological target: Substance-P receptor (Rattus norvegicus, UniProt P14600); assay: Ability to inhibit the binding of [125I]physalaemin to the SP receptors in rat telencephalon slices
[2] = biological target: Adenosine receptor (Rattus norvegicus, UniProt P29276+P25099+P30543+P28647); assay: Ability to inhibit the binding of [3H]N6-phenylisopropyl adenosine to adenosine receptor in rat cerebral cortex membranes; assay type: cell membranes, Membrane

Substance-P receptor, sequence (P14600 whole entry): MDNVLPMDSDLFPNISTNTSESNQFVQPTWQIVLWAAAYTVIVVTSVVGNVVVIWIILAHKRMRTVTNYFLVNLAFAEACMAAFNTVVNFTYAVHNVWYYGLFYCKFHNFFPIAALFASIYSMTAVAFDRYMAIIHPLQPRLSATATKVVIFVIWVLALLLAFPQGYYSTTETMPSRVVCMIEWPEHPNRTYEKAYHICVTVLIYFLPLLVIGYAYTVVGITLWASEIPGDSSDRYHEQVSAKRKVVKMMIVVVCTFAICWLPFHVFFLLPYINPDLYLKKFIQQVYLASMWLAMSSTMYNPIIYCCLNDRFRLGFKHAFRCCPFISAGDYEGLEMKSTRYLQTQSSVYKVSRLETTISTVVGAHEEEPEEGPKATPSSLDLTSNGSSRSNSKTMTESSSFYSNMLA

| Ki [1] [nM] | Ki [2] [nM] | Compound |
| --- | --- | --- |
| > 10000 |  | CSCC[C@H](NC(=O)[C@H](CC(C)C)NC(=O)CNC(=O)[C@H](Cc1ccccc1)NC(=O)[C@H](Cc1ccccc1)NC(C)=O)C(N)=O |
|  | > 30000 | CSCC[C@@H](NC(=O)[C@H](CC(C)C)NC(=O)CNC(=O)[C@H](Cc1ccccc1)NC(=O)[C@H](Cc1ccccc1)NC(C)=O)C(N)=O |
|  | > 30000 | CSCC[C@@H](NC(=O)[C@H](CC(C)C)NC(=O)CNC(=O)[C@H](Cc1ccccc1)NC(=O)[C@@H](N)Cc1ccccc1)C(N)=O |
| > 10000 | 30 | CCCN1C(=O)C2NC(c3ccc(OCC(=O)NCCNC(=O)C(N)CC(=O)N[C@@H](Cc4ccccc4)C(=O)N[C@@H](Cc4ccccc4)C(=O)NCC(N)=O)cc3)=NC2N(CCC)C1=O (stereo not given in full) |
|  | > 30000 | CSCC[C@H](NC(=O)[C@H](CC(C)C)NC(=O)CNC(=O)[C@H](Cc1ccccc1)NC(=O)[C@H](Cc1ccccc1)NC(=O)[C@H](CCC(N)=O)NC(=O)[C@H](CCC(N)=O)NC(=O)[C@@H]1CCCN1C(=O)[C@H](CCCCN)NC(=O)[C@@H]1CCCN1C(=O)[C@@H](N)CCCN=C(N)N)C(N)=O [SUBSTANCE P] |
| 450 |  | H-QFFGLM-NH2 |
| 180 |  | H-QQFFGLM-NH2 |

Continued, compound first:

| Compound | Ki [1] [nM] | Ki [2] [nM] |
| --- | --- | --- |
| CSCC[C@H](NC(=O)[C@H](CC(C)C)NC(=O)CNC(=O)[C@H](Cc1ccccc1)NC(=O)[C@@H](N)Cc1ccccc1)C(N)=O | > 10000 |  |
| CCCN1C(=O)C2NC(c3ccc(OCC(=O)NCCNC(=O)CN)cc3)=NC2N(CCC)C1=O (stereo not given) | > 10000 | 2.1 |
| CCCN1C(=O)C2NC(c3ccc(OCC(=O)NCCNC(=O)C(N)CC(N)=O)cc3)=NC2N(CCC)C1=O (stereo not given) |  | 4.3 |
| CCCN1C(=O)C2NC(c3ccc(OCC(=O)NCCN)cc3)=NC2N(CCC)C1=O (stereo not given) | > 10000 | 1.2 |
| O=C(O)Cc1ccc(Nc2ncnc3c2ncn3C2O[C@H](CO)[C@@H](O)[C@H]2O)cc1 (stereo not given in full) |  | 210 |
| CNC(=O)Cc1ccc(Nc2ncnc3c2ncn3C2O[C@H](CO)[C@@H](O)[C@H]2O)cc1 (stereo not given in full) | > 10000 |  |
| CCCN1C(=O)C2NC(c3ccc(OCC(=O)NCCNC(=O)C(N)CC(=O)N[C@@H](Cc4ccccc4)C(=O)N[C@@H](Cc4ccccc4)C(=O)NCC(=O)N[C@@H](CC(C)C)C(=O)N[C@@H](CCSC)C(N)=O)cc3)=NC2N(CCC)C1=O (stereo not given in full) (X1-FFGLM-NH2) | 300 | 35 |
| CSCC[C@H](NC(=O)[C@H](CC(C)C)NC(=O)CNC(=O)[C@H](Cc1ccccc1)NC(=O)[C@H](Cc1ccccc1)NC(=O)Cc1ccc(Nc2ncnc3c2ncn3[C@@H]2O[C@H](CO)[C@@H](O)[C@H]2O)cc1)C(N)=O (X2-FFGLM-NH2) | 2000 | 16 |
